Assays:
Format in all cases: cell-based
HBV [1] = test: Anti-HBV activity in HepG2.117 inducible HBV producing cell line (Tet-off), intracellular HBV DNA by realtime PCR; conditions: Hepatitis B virus, read-out: HepG2 117 EC50
HBV [2] = test: Anti-HBV activity in HepG2.2.15 stable transfected cell line, HBV DNA from secreted virions by realtime PCR; conditions: Hepatitis B virus, read-out: HBV - HepG2.15
[3] = Cytotoxicity in HepG2 cells, Resazurin assay; conditions: human, 4 days incubation, Resazurin viability
Method: Cytotoxicity of the compounds was also tested using HepG2 cells, incubated for 4 days in the presence of compounds. The viability of the cells was assessed using a Resazurin assay.

[4] = 72 h, HepG2.117 cells, 3 days of treatment, intracellular HBV DNA
[5] = 144 h, HepG2.2.15 cells, 6 days of treatment, HBV DNA from secreted virions

Structure (SMILES)	EC50 (HBV [1]; [4])	EC50 (HBV [2]; [5])	CC50 at 4 days [3]	EC50 (HBV [1]; HepG2.117, 72 h)	EC50 (HBV [2]; HepG2.2.15, 144 h)
O=S(=O)(NC1CCCCC1)c1ccc2[nH]nc(Nc3ccc(F)cc3)c2c1 [Compound 3]	4.6 µM	1 µM	> 25 µM	–	–
O=S(=O)(NC1CCCCC1)c1ccc2onc(Nc3ccc(F)cc3)c2c1 [Compound 4]	–	–	> 25 µM	1.2 µM	0.74 µM
O=S(=O)(NC1CCCC1)c1ccc2[nH]nc(Nc3ccc(F)cc3)c2c1 [Compound 5]	1.8 µM	1 µM	> 25 µM	–	–
Cn1nc(Nc2ccc(F)cc2)c2cc(S(=O)(=O)NC3CCCC3)ccc21 [Compound 6]	0.82 µM	0.49 µM	> 25 µM	–	–
CC(C)n1nc(Nc2ccc(F)cc2)c2cc(S(=O)(=O)NC3CCCC3)ccc21 [Compound 7]	> 25 µM	> 50 µM	> 25 µM	–	–
O=S(=O)(NC1CCCC1)c1ccc2c(c1)c(Nc1ccc(F)cc1)nn2C1CC1 [Compound 8]	0.62 µM	0.21 µM	> 25 µM	–	–
CC(=O)n1nc(Nc2ccc(F)cc2)c2cc(S(=O)(=O)NC3CCCC3)ccc21 [Compound 9]	18.4 µM	> 50 µM	> 25 µM	–	–
COC(=O)n1nc(Nc2ccc(F)cc2)c2cc(S(=O)(=O)NC3CCCC3)ccc21 [Compound 10]	> 25 µM	46.5 µM	> 25 µM	–	–
O=S(=O)(N[C@H]1CCOC1)c1ccc2[nH]nc(Nc3ccc(F)c(F)c3)c2c1 [Compound 11]	12.4 µM	3.3 µM	> 25 µM	–	–
Cc1cc(Nc2n[nH]c3ccc(S(=O)(=O)N[C@H]4CCOC4)cc23)ccc1F [Compound 12]	> 25 µM	5.2 µM	> 25 µM	–	–
CC(C)NS(=O)(=O)c1ccc2[nH]nc(Nc3ccc(F)c(F)c3)c2c1 [Compound 13]	> 25 µM	8.9 µM	> 25 µM	–	–
Cc1cc(Nc2nn(C)c3ccc(S(=O)(=O)N[C@H]4CCOC4)cc23)ccc1F [Compound 14]	8.5 µM	1.1 µM	> 25 µM	–	–
CC(C)NS(=O)(=O)c1ccc2c(c1)c(Nc1ccc(F)c(C(F)F)c1)nn2C [Compound 15]	2.8 µM	0.44 µM	> 25 µM	–	–
Cn1nc(Nc2ccc(F)c(C(F)F)c2)c2cc(S(=O)(=O)N[C@H]3CCOC3)ccc21 [Compound 16]	4.5 µM	1.3 µM	> 25 µM	–	–
CC(C)NS(=O)(=O)c1ccc2cnc(Nc3ccc(F)c(C(F)F)c3)n2c1 [Compound 17]	14.2 µM	0.56 µM	> 25 µM	–	–
Cc1cc(Nc2ncc3ccc(S(=O)(=O)N[C@H]4CCOC4)cn23)ccc1F [Compound 18]	> 25 µM	1.7 µM	> 25 µM	–	–
Cc1cc(Nc2nnc3ccc(S(=O)(=O)NC(C)C)cn23)ccc1F [Compound 19]	3.4 µM	1.2 µM	> 25 µM	–	–

Reference: patent publication US9156839B2, “Fused bicyclic sulfamoyl derivatives and the use thereof as medicaments for the treatment of hepatitis B” (JANSSEN SCIENCES IRELAND UC, priority 2012, dated 2015)
